Counter-ions that a name gives are not always drawn.
What was measured:
Assay type in all cases: cell-based, human
[1] = system: SKM-1 cells; test: EPZ-5676 300 nM 7-day pre-treatment, then second compound 72 hours, ATPLite, IC50 shift (Example 6); conditions: SKM-1 cells; 300 nM EPZ-5676 or DMSO 7-day pre-treatment, then 2nd compound 72 hours, ATPLite; Synergy = IC50 of 2nd compound decreased by 2-fold or more vs DMSO control
Procedure: Cells were then equilibrated in incubators for 24 hours before treatment with a second compound. Treated assay plates were incubated with a second compound for 72 hours. After this time, plates were developed for endpoint analysis using ATPLite to measure ATP content, which is used as an indicator of cell viability.
“N/D” means that IC50 of the second compound could not be determined for both conditions.

[2] = system: MOLM-13 (MLL-AF9); test: Combination proliferation study with Compound A2 (ATP/CellTiter-Glo, Chou-Talalay combination index)
Procedure: (§1) The acute myelogenous leukemia cell lines MV4-11 (MLL-AF4) and MOLM-13 (MLL-AF9) were obtained from American Type Culture Collection (ATCC; Rockville, Md.) and Deutsche Sammlung von Mikroorganismen and Zellkulturen (DSMZ; Braunschweig, Germany) respectively.
(§2) Studies were performed using MLL-rearranged cell lines in vitro to evaluate the anti-proliferative effect of a combination of two agents together on cell growth. Initial proliferation studies were performed to determine the IC50 of a given compound in each cell line. The cell counts were measured by ATP quantitation using the Promega Cell Titer Glo kit and luminescence values corresponded to the amount of ATP in a given well.
(§3) Compounds were evaluated for synergy in the co-treatment phase by testing the compounds in a concentration range which was bracketed around their IC50 values. The compounds were plated to a 96 well plate in a matrix format (FIG. 3) which includes increasing concentrations of each drug in the combination in a constant ratio, in addition to the effect of each compound alone in the study. Cells were seeded and grown in the log-linear phase for 3 or 7 days in the co-treatment phase. Minimum inhibition (DMSO alone) controls were used in each plate to calculate fraction affected (Fa) of a test well. DMSO concentration was kept at 0.1% v/v.
(§4) The drug combination analysis was performed utilizing the Chou-Talalay method Synergy was determined using the software package Calcusyn by Biosoft. The combination index (CI) is a quantitative term used to describe the level of synergy or antagonism in a given test system. A combination index less than one indicates synergy, and a CI greater than one indicates antagonism. Further, strong synergism is achieved when the CI value falls below 0.3.
(§5) Graphs representing values of combination index (CI) versus Fractional effect (Fa) known as Fa-CI plots were generated and synergy was evaluated. Drug synergy was statistically defined by CI values less than 1, antagonism by CI>1 and additive effect by CI equal to 1.
Graphs representing values of combination index (CI) versus Fractional effect (Fa) known as Fa-CI plots were generated and synergy was evaluated. Drug synergy was statistically defined by CI values less than 1, antagonism by CI>1 and additive effect by CI equal to 1. […]
Cell viability was measured via ATP content using CellTiter-Glo® (Promega).
as §2, with “Proliferation studies” for “Studies”, “MOLM-13, MV4-11 and SKM-1” for “MLL-rearranged”, “cancer cell killing” for “anti-proliferative”, “IC50 values” for “IC50”, “correspond” for “corresponded”, “well. […]” for “well.”
Compounds evaluated for synergy in the co-treatment phase were tested in a range which was bracketed around the IC50's.

[3] = system: MV4-11 (MLL-AF4); test: as above; conditions: for Combination with Compound A2, MV4-11 (MLL-AF4): 7 Day Cotreatment Model, Table 4; for Combination with Compound A2, MV4-111 MLL-AF4: Table 2, Example 3; for Combination of Compound A2 and anti-cancer agent, MV4-11: 7 Day Cotreatment
Procedure: as §1, §2, §3, §4, §5, §5
The HP-D300 digital dispenser (Tecan) was used to dispense compounds in a combinatorial matrix. […] Cell viability was measured via ATP content using CellTiter-Glo® (Promega).
Viability was determined using CellTiter-Glo® (Promega).
as §2, with “Proliferation studies” for “Studies”, “MOLM-13, MV4-11 and SKM-1” for “MLL-rearranged”, “cancer cell killing” for “anti-proliferative”, “IC50 values” for “IC50”, “correspond” for “corresponded”
These studies were performed to evaluate both the combinatorial effect of compounds on cell killing and the durability of the effect by washing out one of the agents.
Compounds evaluated for synergy in the co-treatment phase were tested in a range which was bracketed around the IC50's. The compounds were plated to a 96 well plate in a matrix format which includes increasing concentrations of each drug in the combination in a constant ratio, in addition to the effect of each compound alone in the study.

[4] = 7 Day Cotreatment Model, Table 4

For `CN(C)CC[C@H](CSc1ccccc1)Nc1ccc(S(=O)(=O)NC(=O)c2ccc(N3CCN(Cc4ccccc4-c4ccc(Cl)cc4)CC3)cc2)cc1[N+](=O)[O-]` [ABT-737], the “SKM-1 (summary of combination study: EPZ-5676 + 2nd compound)” value [1] was “Synergy (considered synergistic if the IC50 value of the second compound decreased by 2-fold or more when EPZ-5676 was added as compared to the DMSO control)”.
In the case of `COc1ccc(-c2ccc3c(N4CCOC[C@@H]4C)nc(N4CCOC[C@@H]4C)nc3n2)cc1CO` [AZD 8055], the “SKM-1 (summary of combination study: EPZ-5676 + 2nd compound)” value [1] is reported as “Synergy (considered synergistic if the IC50 value of the second compound decreased by 2-fold or more when EPZ-5676 was added as compared to the DMSO control)”.
With `O=C(Nc1cccc(Nc2ncc(Br)c(NCCc3cnc[nH]3)n2)c1)N1CCCC1` [BX-912] the “SKM-1 (summary of combination study: EPZ-5676 + 2nd compound)” value [1] was “Synergy (considered synergistic if the IC50 value of the second compound decreased by 2-fold or more when EPZ-5676 was added as compared to the DMSO control)”.
For `Nc1nc(Cl)nc2c1ncn2[C@@H]1O[C@H](CO)[C@@H](O)[C@@H]1F` [Clofarabine], the “Combination with Compound A2, MOLM-13 (MLL-AF9)” value (“Combination … (MLL-AF9)” below) [2, 4] was “Synergy (Drug synergy was statistically defined by CI values less than 1)” and the “Combination with Compound A2, MV4-11 (MLL-AF4)” value (from here on “Combination … (MLL-AF4)”) [3] was “Synergy (Drug synergy was statistically defined by CI values less than 1)”.
`Nc1ncn([C@H]2C[C@H](O)[C@@H](CO)O2)c(=O)n1` [Decitabine] was tested, and the “Combination … (MLL-AF9)” value [2, 4] was “Synergy (Drug synergy was statistically defined by CI values less than 1)”, the “Combination … (MLL-AF9)” value ([2]; Table 2, Example 3) was “Synergy (Drug synergy was statistically defined by CI values less than 1)” and the “Combination … (MLL-AF4)” value [3] was “Synergy (Drug synergy was statistically defined by CI values less than 1)”. The “Combination with Compound A2, MV4-111 MLL-AF4” value [3] was “Synergy (Drug synergy was statistically defined by CI values less than 1)”.
For `C#Cc1cccc(Nc2ncnc3cc(OCCOC)c(OCCOC)cc23)c1` [Erlotinib Hydrochloride], the “SKM-1 (summary of combination study: EPZ-5676 + 2nd compound)” value [1] was “Synergy (considered synergistic if the IC50 value of the second compound decreased by 2-fold or more when EPZ-5676 was added as compared to the DMSO control)”.
For `NC(=O)NO` [Hydroxyurea], the “Combination … (MLL-AF9)” value [2, 4] was “Synergy (Drug synergy was statistically defined by CI values less than 1)” and the “Combination … (MLL-AF4)” value [3] was “Synergy (Drug synergy was statistically defined by CI values less than 1)”.
For `N#Cc1c(C2CCNCC2)cc(-c2c(O)cccc2OCC2CC2)nc1N` [IKK-2 Inhibitor VIII], the “SKM-1 (summary of combination study: EPZ-5676 + 2nd compound)” value [1] was “Synergy (considered synergistic if the IC50 value of the second compound decreased by 2-fold or more when EPZ-5676 was added as compared to the DMSO control)”.
`Cc1sc2c(c1C)C(c1ccc(Cl)cc1)=N[C@@H](CC(=O)OC(C)(C)C)c1nnc(C)n1-2` [JQ1] was tested, and the “Combination … (MLL-AF9)” value [2, 4] was “Additive (additive effect by CI equal to 1)”, the “Combination … (MLL-AF9)” value ([2]; Table 2, Example 3) was “Additive (additive effect by CI equal to 1)” and the “Combination … (MLL-AF4)” value [3] was “Additive (additive effect by CI equal to 1)”. The “Combination with Compound A2, MV4-111 MLL-AF4” value [3] was “Additive (additive effect by CI equal to 1)”.
In the case of `CC(C)C[C@H](NC(=O)CNC(=O)c1cc(Cl)ccc1Cl)B(O)O` [MLN2238], the “SKM-1 (summary of combination study: EPZ-5676 + 2nd compound)” value [1] is reported as “Synergy (considered synergistic if the IC50 value of the second compound decreased by 2-fold or more when EPZ-5676 was added as compared to the DMSO control)”.
`CCCc1cc2c(N3CCN(C4=NCC(C)(C)S4)CC3)ncnc2s1` [Menin-MLL inhibitor MI-2] was tested, and the “Combination … (MLL-AF9)” value [2, 4] was “Synergy (Drug synergy was statistically defined by CI values less than 1)” and the “Combination … (MLL-AF4)” value [3] was “Synergy (Drug synergy was statistically defined by CI values less than 1)”.
With `S=c1nc[nH]c2nc[nH]c12` [Mercaptopurine] the “Combination … (MLL-AF9)” value [2, 4] was “Additive --> Synergy” and the “Combination … (MLL-AF4)” value [3] was “Additive (additive effect by CI equal to 1)”.
`CN(Cc1cnc2nc(N)nc(N)c2n1)c1ccc(C(=O)N[C@@H](CCC(=O)O)C(=O)O)cc1` [Methotrexate] was tested, and the “Combination … (MLL-AF9)” value [2, 4] was “Additive (additive effect by CI equal to 1)” and the “Combination … (MLL-AF4)” value [3] was “Additive (additive effect by CI equal to 1)”.
With `C[C@H]1C[C@@H]2[C@H]([C@@H](O)C[C@@]3(C)[C@H]2CC[C@]3(O)C(=O)CO)[C@@]2(C)C=CC(=O)C=C12` [Methylprednisolone] the “SKM-1 (summary of combination study: EPZ-5676 + 2nd compound)” value [1] was “Synergy (considered synergistic if the IC50 value of the second compound decreased by 2-fold or more when EPZ-5676 was added as compared to the DMSO control)”.
`O=C1c2c(O)ccc(O)c2C(=O)c2c(NCCNCCO)ccc(NCCNCCO)c21` [Mitoxantrone] was tested, and the “Combination … (MLL-AF9)” value [2, 4] was “Synergy (Drug synergy was statistically defined by CI values less than 1)”, the “Combination of Compound A2 and anti-cancer agent, MV4-11” value [3] was “Synergy (A combination index less than one indicates synergy)” and the “Combination … (MLL-AF4)” value [3] was “Synergy (Drug synergy was statistically defined by CI values less than 1)”.
`C=C[C@@]1(C)CC(=O)[C@]2(O)[C@@]3(C)[C@@H](O)CCC(C)(C)[C@@H]3[C@H](OC(=O)CCN(C)C)[C@H](OC(C)=O)[C@@]2(C)O1.Cl` [NKH 477] was tested, and the “SKM-1 (summary of combination study: EPZ-5676 + 2nd compound)” value [1] was “Synergy (considered synergistic if the IC50 value of the second compound decreased by 2-fold or more when EPZ-5676 was added as compared to the DMSO control)”.
In the case of `CC1(C)CCC(c2ccc(Cl)cc2)=C(CN2CCN(c3ccc(C(=O)NS(=O)(=O)c4ccc(N[C@H](CCN5CCOCC5)CSc5ccccc5)c(S(=O)(=O)C(F)(F)F)c4)cc3)CC2)C1` [Navitoclax], the “Combination of Compound A2 and anti-cancer agent, MOLM-13” value ([2]; 7 Day Cotreatment) is reported as “synergy”, the “Combination … (MLL-AF9)” value [2, 4] is reported as “Synergy (Drug synergy was statistically defined by CI values less than 1)” and the “Combination of Compound A2 and anti-cancer agent, MV4-11” value [3] is reported as “synergy”. For the same compound, the “Combination … (MLL-AF4)” value [3] was “Synergy (Drug synergy was statistically defined by CI values less than 1)”.
In the case of `CC(C)CC(=O)Nc1[nH]nc2c1CN(C(=O)C1CCN(C)CC1)C2(C)C` [PHA-793887], the “SKM-1 (summary of combination study: EPZ-5676 + 2nd compound)” value [1] is reported as “Synergy (considered synergistic if the IC50 value of the second compound decreased by 2-fold or more when EPZ-5676 was added as compared to the DMSO control)”.
For `CC(=O)c1c(C)c2cnc(Nc3ccc(N4CCNCC4)cn3)nc2n(C2CCCC2)c1=O` [Palbociclib], the “Combination … (MLL-AF9)” value [2, 4] was “Synergy (Drug synergy was statistically defined by CI values less than 1)” and the “Combination … (MLL-AF4)” value [3] was “Synergy (Drug synergy was statistically defined by CI values less than 1)”.
`Cc1[nH]c2ccccc2c1CCNCc1ccc(/C=C/C(=O)NO)cc1` [Panobinostat] was tested, and the “Combination … (MLL-AF9)” value [2, 4] was “Synergy (Drug synergy was statistically defined by CI values less than 1)” and the “Combination … (MLL-AF4)” value [3] was “Antagonistic (antagonism by CI>1)”.
In the case of `CC(C)(C)c1cc(NC(=O)Nc2ccc(-c3cn4c(n3)sc3cc(OCCN5CCOCC5)ccc34)cc2)no1` [Quizartinib], the “Combination … (MLL-AF9)” value [2, 4] is reported as “Synergy (Drug synergy was statistically defined by CI values less than 1)” and the “Combination of Compound A2 and anti-cancer agent, MV4-11” value [3] is reported as “synergy”.
`CC[C@]1(O)C[C@H]2CN(CCc3c([nH]c4ccccc34)[C@@](C(=O)OC)(c3cc4c(cc3OC)N(C=O)[C@H]3[C@@](O)(C(=O)OC)[C@H](OC(C)=O)[C@]5(CC)C=CCN6CC[C@]43[C@@H]65)C2)C1` [Vincristine] was tested, and the “Combination … (MLL-AF9)” value [2, 4] was “Additive (additive effect by CI equal to 1)” and the “Combination … (MLL-AF4)” value [3] was “Additive (additive effect by CI equal to 1)”.
In the case of `O=C(CCCCCCC(=O)Nc1ccccc1)NO` [Vorinostat], the “Combination … (MLL-AF9)” value [2, 4] is reported as “Additive/Synergy” and the “Combination … (MLL-AF4)” value [3] is reported as “Antagonistic (antagonism by CI>1)”.

Reference: patent US20200030355A1, “COMBINATION THERAPY FOR TREATING CANCER” (Epizyme, Inc., priority 2014, published 2020)
